PubChem BioAssay AID192 (DTP/NCI, 2004)
Where “and” joins values, the source holds several entries; their conditions need not be identical. Equal values may be shown once. Toxic doses and inconclusive results are not listed.

Test system: BDF1 mice, B16 melanoma ip, median survival T/C
Test: NCI In Vivo Anticancer Drug Screen. Data for tumor model B16 Melanoma (intraperitoneal) in B6D2F1 (BDF1) mice
Conditions: endpoint: median survival time, higher = longer survival
Summary of the method: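 Values are ratios of treated (T) to vehicle-control (C) measurements of survival or tumor size in tumor-bearing mice.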

[1] = dose: 100.0 mg/kg/injection, schedule: Q01DX009 (ip), vehicle: saline with Tween-80
[2] = dose: 200.0 mg/kg/injection, schedule: Q01DX009 (ip), vehicle: saline with Tween-80
[3] = dose: 400.0 mg/kg/injection, schedule: Q01DX009 (ip), vehicle: saline with Tween-80
[4] = dose: 6.25 mg/kg/injection, schedule: Q01DX009 (ip), vehicle: saline with Tween-80
[5] = dose: 12.5 mg/kg/injection, schedule: Q01DX009 (ip), vehicle: saline with Tween-80
[6] = dose: 25.0 mg/kg/injection, schedule: Q01DX009 (ip), vehicle: saline with Tween-80
[7] = dose: 6.25 mg/kg/injection, schedule: Q01DX009 (ip), vehicle: Klucel (hydroxypropylcellulose) (HPC)
[8] = dose: 12.5 mg/kg/injection, schedule: Q01DX009 (ip), vehicle: Klucel (hydroxypropylcellulose) (HPC)
[9] = dose: 25.0 mg/kg/injection, schedule: Q01DX009 (ip), vehicle: Klucel (hydroxypropylcellulose) (HPC)
[10] = dose: 50.0 mg/kg/injection, schedule: Q01DX009 (ip), vehicle: Klucel (hydroxypropylcellulose) (HPC)
[11] = dose: 12.5 mg/kg/injection, schedule: Q01DX009 (ip), vehicle: saline
[12] = dose: 25.0 mg/kg/injection, schedule: Q01DX009 (ip), vehicle: saline
[13] = dose: 50.0 mg/kg/injection, schedule: Q01DX009 (ip), vehicle: saline
[14] = dose: 50.0 mg/kg/injection, schedule: Q01DX009 (ip), vehicle: saline with Tween-80

## Cc1c([N+](=O)[O-])cc2c(c1[N+](=O)[O-])C(C)(C)CC2(C)C
[1]
  T/C: 95 % of control
[2]
  T/C: 86 % of control
[3]
  T/C: 90 % of control

## CCCC1CC[N-]CC1.CCCC1CC[N-]CC1.[Cl][Pt+2][Cl]
[4]
  T/C: 100 % of control
[5]
  T/C: 110 % of control
[6]
  T/C: 104 % of control

## O=C1N(Br)C(=O)C(c2ccc(Cl)cc2)(c2ccc(Cl)cc2)N1Br
[7]
  T/C: 103 % of control
[8]
  T/C: 98 % of control
[9]
  T/C: 100 % of control
[10]
  T/C: 88 % of control

## COC1CC(OC2CCC3(C)C(CCC45OC46CCC(C4=CC(=O)OC4)C6(C)CCC35)C2)OC(C)C1O (stereo unspecified)
dose: 1.2 mg/kg/injection, schedule: Q01DX009 (ip), vehicle: saline
  T/C: 98 % of control
dose: 1.8 mg/kg/injection, schedule: Q01DX009 (ip), vehicle: saline
  T/C: 101 % of control
dose: 2.75 mg/kg/injection, schedule: Q01DX009 (ip), vehicle: saline
  T/C: 87 % of control
[11]
  T/C: 96 % of control
[12]
  T/C: 89 % of control

## O=c1[nH]cc(F)c(=O)[nH]1.[Tl]
dose: 1.25 mg/kg/injection, schedule: Q01DX009 (ip), vehicle: water
  T/C: 95 % of control
dose: 2.5 mg/kg/injection, schedule: Q01DX009 (ip), vehicle: water
  T/C: 100 % of control
dose: 5.0 mg/kg/injection, schedule: Q01DX009 (ip), vehicle: water
  T/C: 102 % of control
dose: 10.0 mg/kg/injection, schedule: Q01DX009 (ip), vehicle: water
  T/C: 113 % of control

## CCCCOCCC1CCNCC1
[11]
  T/C: 116 % of control
[12]
  T/C: 106 % of control
[13]
  T/C: 110 % of control

## O=C1NC2C(NC(=O)N2Cl)N1Cl (stereo unspecified)
dose: 3.13 mg/kg/injection, schedule: Q01DX009 (ip), vehicle: saline with Tween-80
  T/C: 101 % of control
[4]
  T/C: 98 % of control
[5]
  T/C: 90 % of control and 98 % of control
[11]
  T/C: 101 % of control
[6]
  T/C: 86 % of control
[12]
  T/C: 94 % of control
dose: 25.0 mg/kg/injection, schedule: Q04DX003 (ip), vehicle: saline with Tween-80
  T/C: 105 % of control

## Cc1c2cc[n+](C)cc2c(C)c2c1[nH]c1ccc(O)cc12
dose: 0.06 mg/kg/injection, schedule: Q01DX009 (ip), vehicle: water
  T/C: 111 % of control
dose: 0.25 mg/kg/injection, schedule: Q01DX009 (ip), vehicle: water
  T/C: 158 % of control

## COc1cc2c(c(OC)c1OC)-c1c(cc3c(c1OC)OCO3)CC(C)C(C)(O)C2OC(=O)c1ccccc1 (stereo unspecified)
dose: 11.25 mg/kg/injection, schedule: Q01DX009 (ip), vehicle: saline + Tween-80 + alcohol
  T/C: 106 % of control
dose: 22.5 mg/kg/injection, schedule: Q01DX009 (ip), vehicle: saline + Tween-80 + alcohol
  T/C: 97 % of control
dose: 45.0 mg/kg/injection, schedule: Q01DX009 (ip), vehicle: saline + Tween-80 + alcohol
  T/C: 97 % of control
dose: 90.0 mg/kg/injection, schedule: Q01DX009 (ip), vehicle: saline + Tween-80 + alcohol
  T/C: 91 % of control

## COC(=O)Nc1cn2cc(C(=O)c3cccs3)ccc2n1
dose: 1.56 mg/kg/injection, schedule: Q01DX009 (ip), vehicle: Klucel (hydroxypropylcellulose) (HPC)
  T/C: 93 % of control
dose: 3.12 mg/kg/injection, schedule: Q01DX009 (ip), vehicle: Klucel (hydroxypropylcellulose) (HPC)
  T/C: 98 % of control
[7]
  T/C: 104 % of control
[8]
  T/C: 113 % of control
[9]
  T/C: 123 % of control

## C[CH2][Sn]([CH2]C)([CH2]C)[O]C(=O)CO
dose: 1.56 mg/kg/injection, schedule: Q01DX009 (ip), vehicle: saline
  T/C: 97 % of control
dose: 3.13 mg/kg/injection, schedule: Q01DX009 (ip), vehicle: saline
  T/C: 87 % of control

## NC1(C(=O)O)CSSC1
[9]
  T/C: 95 % of control
[10]
  T/C: 100 % of control

## CCCCCCCCCCCCCCCCCC(=O)NNCCO
[14]
  T/C: 86 % of control

## O=C(CCl)Oc1cccc([N+](=O)[O-])c1
[6]
  T/C: 107 % of control
[14]
  T/C: 102 % of control
[1]
  T/C: 101 % of control

## Nc1nc2c(ncn2C2OC(CO)C(O)C2O)c(=O)[nH]1 (stereo unspecified)
dose: 25.0 mg/kg/injection, schedule: Q01DX009 (ip), vehicle: suspension in saline
  T/C: 101 % of control
dose: 50.0 mg/kg/injection, schedule: Q01DX009 (ip), vehicle: suspension in saline
  T/C: 110 % of control
dose: 100.0 mg/kg/injection, schedule: Q01DX009 (ip), vehicle: suspension in saline
  T/C: 113 % of control
dose: 400.0 mg/kg/injection, schedule: Q01DX009 (ip), vehicle: suspension in saline
  T/C: 116 % of control

## C/C(=C\c1ccccc1)C(=O)c1ccccc1
dose: 100.0 mg/kg/injection, schedule: Q04DX003 (ip), vehicle: saline with Tween-80
  T/C: 100 % of control
dose: 200.0 mg/kg/injection, schedule: Q04DX003 (ip), vehicle: saline with Tween-80
  T/C: 113 % of control
dose: 400.0 mg/kg/injection, schedule: Q04DX003 (ip), vehicle: saline with Tween-80
  T/C: 92 % of control

## CCC(=O)OC1(c2ccccc2)CCN(C)C1C (stereo unspecified)
dose: 6.25 mg/kg/injection, schedule: Q01DX009 (ip), vehicle: saline
  T/C: 102 % of control
[11]
  T/C: 102 % of control
[12]
  T/C: 95 % of control
[13]
  T/C: 97 % of control
dose: 100.0 mg/kg/injection, schedule: Q01DX009 (ip), vehicle: saline
  T/C: 90 % of control

## COc1ccc(NC(=O)Nc2ccccc2OC)cc1
[1]
  T/C: 102 % of control
[2]
  T/C: 115 % of control
[3]
  T/C: 101 % of control

## O=C1OC(C(O)CO)C(O)=C1O (stereo unspecified)
dose: 0.12 mg/kg/injection, schedule: Q01DX009 (ip), vehicle: saline
  T/C: 100 % of control
dose: 0.25 mg/kg/injection, schedule: Q01DX009 (ip), vehicle: saline
  T/C: 110 % of control
dose: 0.5 mg/kg/injection, schedule: Q01DX009 (ip), vehicle: saline
  T/C: 105 % of control
dose: 1.0 mg/kg/injection, schedule: Q01DX001 (ip), vehicle: saline
  T/C: 102 % of control
dose: 1.0 mg/kg/injection, schedule: Q01DX009 (ip), vehicle: saline
  T/C: 110 % of control
dose: 2.0 mg/kg/injection, schedule: Q01DX001 (ip), vehicle: saline
  T/C: 100 % of control
dose: 2.0 mg/kg/injection, schedule: Q01DX009 (ip), vehicle: saline
  T/C: 110 % of control
dose: 4.0 mg/kg/injection, schedule: Q01DX001 (ip), vehicle: saline
  T/C: 95 % of control
dose: 4.0 mg/kg/injection, schedule: Q01DX009 (ip), vehicle: saline
  T/C: 105 % of control
dose: 8.0 mg/kg/injection, schedule: Q01DX001 (ip), vehicle: saline
  T/C: 102 % of control
dose: 8.0 mg/kg/injection, schedule: Q01DX009 (ip), vehicle: saline
  T/C: 110 % of control
dose: 16.0 mg/kg/injection, schedule: Q01DX001 (ip), vehicle: saline
  T/C: 100 % of control
dose: 16.0 mg/kg/injection, schedule: Q01DX009 (ip), vehicle: saline
  T/C: 95 % of control
dose: 32.0 mg/kg/injection, schedule: Q01DX001 (ip), vehicle: saline
  T/C: 100 % of control
dose: 64.0 mg/kg/injection, schedule: Q01DX001 (ip), vehicle: saline
  T/C: 97 % of control

## COC(CCC(C)C1OC23CC(OC(=O)CC(C(C)O)OC(=O)CC(O)(O2)C(C)CC3(C)C)C1C)c1cccc(O)c1 (stereo unspecified)
dose: 12.5 micrograms/kg/injection, schedule: Q01DX009 (ip), vehicle: other
  T/C: 103 % of control
dose: 25.0 micrograms/kg/injection, schedule: Q01DX009 (ip), vehicle: other
  T/C: 101 % of control
dose: 50.0 micrograms/kg/injection, schedule: Q01DX009 (ip), vehicle: other
  T/C: 97 % of control
dose: 100.0 micrograms/kg/injection, schedule: Q01DX009 (ip), vehicle: other
  T/C: 101 % of control

## CCOC(=O)C(C)Oc1ccc(Cl)cc1 (stereo unspecified)
dose: 50.0 mg/kg/injection, schedule: Q01DX009 (ip), vehicle: other
  T/C: 111 % of control
dose: 100.0 mg/kg/injection, schedule: Q01DX009 (ip), vehicle: other
  T/C: 104 % of control
dose: 200.0 mg/kg/injection, schedule: Q01DX009 (ip), vehicle: other
  T/C: 106 % of control
dose: 400.0 mg/kg/injection, schedule: Q01DX009 (ip), vehicle: other
  T/C: 102 % of control
